This is an account of results in PMC11574045, “A cofactor-induced repressive type of transcription factor condensation can be induced by synthetic peptides to suppress tumorigenesis” (The EMBO Journal, 2024).

Values joined by “and” are separate entries in the source; they are usually repeats but may differ in a detail not shown here. Equal values may be shown once. Ends that are not written are not given here.

For one series, the target named is T1, TEAD4 (Homo sapiens, UniProt Q15561).
T1 construct: His; made in house; host or cells: Escherichia coli BL21(DE3)
Kind of series: In vitro DSS-cross-linking assay of TEAD4 oligomerization. In kind it is biochemical. The note with it: 5 µM protein, 30 min 30 °C, DSS 3 mM, SDS-PAGE. As to the method:
The deployed cross-linking reaction system contained 20 mM HEPES pH 7.5, 250 mM NaCl and 5 µM tested proteins with a total volume of 20 µl. This system was allowed to incubate for 30 min at 30 °C, and then combined with disuccinimidyl suberate (DSS) at a final concentration of 3 mM, and the mixtures were further incubated at 4 °C for 20 min. The cross-linking reaction was stopped by adding 1 M Tris HCl (pH 8.5) to the incubated mixture at 4 °C, and allowing the mixture to sit for 10 min, and then boiling it in 1×SDS loading buffer to provide samples for SDS-PAGE analysis.

Series [1] relates to GFP-TEAD4 condensates in HEK293FT cells. Description: GFP-TEAD4 condensate imaging, condensed fraction in cells. In kind it is cell-based. To be noted: HEK293FT, GLUP 10 μg/ml (5 μM) 12 h; individual cells, n = 9.
Series [2] has the same test system. Description: FRAP of TEAD4 condensates in live cells. In kind it is cell-based. The note with it: GLUP-treated HEK293FT cells. As to the method:
For FRAP analysis, cells were seeded at a confluency of ~30% on a 35-mm glass-bottomed dish (Cellvis D35C4-20-1-N). Live cell imaging was carried out using a Leica SP8 confocal microscope (Leica, Germany) with a 63× oil immersion objective lens. A defined region with a diameter of ~1 μm was photobleached by the equipped laser at ~90% power intensity. Fluorescence intensities of the region were recorded by carrying out time-lapse live imaging with a 1.29 s interval and further quantified using Fiji ImageJ software.

In the next series the test system is MKN-45 cells. Type of series: cell-based, human. To be noted: 48 h. As to the method: (§1) For cell viability assays, cells were seeded into 96-well plates overnight to attach them to the plates, and then treated with GLUP for 48 h. Cells incubated for indicated periods of time were analyzed using an ATP-based CellTiter-Lumi^TM Plus kit (Beyotime) according to the manufacturer’s instructions. The intracellular ATP contents were measured using a BioTek Synergy^TM NEO multi-detector microplate reader (Thermo). Cell viability was calculated using the equation cell viability (%) = [[value (test) − value (blank)] × [value (control) − value (blank)]] −1 × 100.

The next series relates to MKN-28 cells. Type of series: cell-based, human. The note with it: 48 h. Here is the method:
as §1

The test system of series [3] is trypsin, actinase E, thermolysin, proteinase K, chymotrypsin-α. Kind of series: Stability of peptides treated with proteases (gel). In kind it is in vitro ADME. To be noted: 30 °C for 1 h, gel read-out. An excerpt: To improve the stability and bioavailability of glup, we subjected it to disulfide-cyclization and C-terminal amidation to generate a macrocyclic version of the peptide and denoted it as GLUP (Fig. 5D). […] However, there were no significant differences in solubility, permeability, and TEAD4-binding affinity between GLUP and glup (Fig. 5F and Appendix Figs. S5F–H). […] These droplets rapidly dissolved when exposed to increased concentrations of NaCl (Fig. 5G, right).
Appendix Figure S5. Optimization of the Linker Peptide
A. Fluorescence polarization (FP) assay to detect the interaction of purified TEAD4 protein with FA M-labeled glup. mP, millipolarization (FP values). B. Microscale […]
protein with glup or glupmut. Kd values are shown. glupmut, an interaction-dead control peptide with the sequence […]. C. Crosslinking assay of TEAD4 […]
oligomerization in the presence of glup or glupmut after DSS treatment. D. Crosslinking assay of TEAD4 oligomerization in the presence of glup or GLUP with or without DSS treatment. E. Gels assessing protein stability levels of glup and GLUP after they were treated with indicated proteases. TR, trypsin; AE, actinase E; TH, thermolysin; PK, proteinase K; CH-α, chymotrypsin-α. […]
(right). […] The data were analyzed using one-way ANOVA, followed by the Tukey’s post-hoc test. *, p < 0.05; **, […]

In another series the test system is HGC-27 cells. Description: Colony formation. The note with it: colony formation: GLUP 2 μg/ml (1 μM) every 2 days for 2 weeks. In kind it is cell-based, human. Here is the method: (A) Cell viability levels of HGC-27 cells treated with indicated concentrations (0, 5, 10, 20, 40 μg/ml) of GLUP for 48 h (three biological replicates, n = 3). Data shown as means ± SD represent the representative results from two independent experiments. (B) Colony formation of HGC-27 cells treated with GLUP every 2 days for a 2-week duration (three biological replicates, n = 3). GLUP, 2 μg/ml (1 μM). (C) Cell viability levels of the indicated cells (from 10 different lines) treated with GLUP. […] IC50 values for the treatments of these cells with GLUP (lower). […] The box plots showing the minima, maxima, center, bounds of box and whiskers and percentiles (upper quartile, median and lower quartile). Data shown as means ± SD represent the representative results from two independent experiments. Significance was tested using the unpaired t test, ***p < 0.001. (D) Cell viability of TEAD4-overexpressing AGS cells treated with GLUP for 48 h (three biological replicates, n = 3). Data shown as means ± SD represent the representative results from two independent experiments. (E) Cell viability levels of four lines of patient-derived cells (PDCs) treated with GLUP. […] The quantification graph represents the data collected from 14 cells (n = 14). […] Tumor areas were measured (right, n = 8/group) and indicated in red circles. […]

As a reminder, the IC50 is the concentration at which inhibition is half-maximal.

T1 sequence (Q15561 whole entry): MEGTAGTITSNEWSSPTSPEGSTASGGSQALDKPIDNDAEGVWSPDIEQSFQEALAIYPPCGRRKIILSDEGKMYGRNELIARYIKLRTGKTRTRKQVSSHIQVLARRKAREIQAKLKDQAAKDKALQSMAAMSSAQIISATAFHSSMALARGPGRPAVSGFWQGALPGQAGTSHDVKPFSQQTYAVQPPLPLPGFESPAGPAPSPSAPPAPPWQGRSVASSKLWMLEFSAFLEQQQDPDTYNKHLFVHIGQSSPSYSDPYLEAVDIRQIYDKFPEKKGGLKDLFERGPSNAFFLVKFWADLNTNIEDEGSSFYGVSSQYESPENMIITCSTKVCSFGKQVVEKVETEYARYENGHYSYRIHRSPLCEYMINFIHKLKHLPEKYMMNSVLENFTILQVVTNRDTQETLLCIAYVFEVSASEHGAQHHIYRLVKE

Take “RRVCVHFHFSLSLR-NH2 (C-terminus assumed) [glup]”: the “TEAD4 oligomerization in DSS cross-linking” value on TEAD4 is recorded as “induced TEAD4 oligomerization in a concentration-dependent manner”; on TEAD4 (listed as GLUP), “strongly induced TEAD4 oligomerization”. In series [1], the “Condensed fraction of GFP-TEAD4” value is 25.1852% and 50.001% and 27.6986% and 34.6228% and 22.4908% and 43.1106% and 47.5218% and 38.4928% and 44.4447%. Moreover, the “mobile fraction (FRAP)” value in series [2] is on record as “about 62%”. In addition, the IC50 in the series on MKN-45 cells was 7.3 µg/mL; in the series with MKN-28 cells, 6.7 µg/mL. In addition, the “Stability towards various proteases” value in series [3] is recorded as “almost completely digested”; in series [3] (listed as GLUP), “remained intact”. Also, the “Viability and colony formation” value in the series on HGC-27 cells was “obvious reduction in both the viability and colony formation”.
